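48-hour exposure; five concentrations; linearly interpolated endpoints. The concentration for 50% growth inhibition is given as GI50.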 Active and inactive are the calls of the source. Rule as the data show it: active = GI50 up to about 1.1 µM and inactive = higher.
Legend:
Assay in all cases: inhibition of tumour cell growth, NCI panel, 48 h
786-0 = tested on: 786-0
A498 = tested on: A498
A549 = tested on: A549
ACHN = tested on: ACHN
CAKI-1 = tested on: CAKI-1
CCRF-CEM = tested on: CCRF-CEM
COLO 205 = tested on: COLO 205
DLD-1 = tested on: DLD-1
DMS-114 = tested on: DMS-114
DMS-273 = tested on: DMS-273
EKVX = tested on: EKVX
HCC 2998 = tested on: HCC 2998
HCT-116 = tested on: HCT-116
HCT-15 = tested on: HCT-15
HL-60 = tested on: HL-60
HOP-62 = tested on: HOP-62
HOP-92 = tested on: HOP-92
HT-29 = tested on: HT-29
IGROV-1 = tested on: IGROV-1
K562 = tested on: K562
KM-20L2 = tested on: KM-20L2
KM12 = tested on: KM12
LOX IMVI = tested on: LOX IMVI
LXFL 529 = tested on: LXFL 529
M14 = tested on: M14
M19-MEL = tested on: M19-MEL
MOLT-4 = tested on: MOLT-4
Malme-3M = tested on: Malme-3M
NCI-H226 = tested on: NCI-H226
NCI-H23 = tested on: NCI-H23
NCI-H460 = tested on: NCI-H460
NCI-H522 = tested on: NCI-H522
OVCAR-3 = tested on: OVCAR-3
OVCAR-4 = tested on: OVCAR-4
OVCAR-5 = tested on: OVCAR-5
OVCAR-8 = tested on: OVCAR-8
RPMI-8226 = tested on: RPMI-8226
RXF 631 = tested on: RXF 631
SF-268 = tested on: SF-268
SF-295 = tested on: SF-295
SF-539 = tested on: SF-539
SK-MEL-28 = tested on: SK-MEL-28
SK-MEL-2 = tested on: SK-MEL-2
SK-MEL-5 = tested on: SK-MEL-5
SK-OV-3 = tested on: SK-OV-3
SN12C = tested on: SN12C
SNB-19 = tested on: SNB-19
SNB-75 = tested on: SNB-75
SW-620 = tested on: SW-620
TK-10 = tested on: TK-10
U-251 = tested on: U-251
UACC-257 = tested on: UACC-257
UACC-62 = tested on: UACC-62
UO-31 = tested on: UO-31
XF498 = tested on: XF498
HOP-18 = tested on: HOP-18
RXF 393 = tested on: RXF 393
SNB-78 = tested on: SNB-78

SMILES: Cc1cc(N(CCC#N)CCC#N)ccc1/C=C\C(=O)Nc1ccccc1
- GI50 (786-0): > 100 µM (inactive)
- GI50 (A498): > 100 µM (inactive)
- GI50 (A549): > 100 µM (inactive)
- GI50 (ACHN): 4.43 µM (inactive)
- GI50 (CAKI-1): > 100 µM (inactive)
- GI50 (CCRF-CEM): > 100 µM (inactive)
- GI50 (COLO 205): > 100 µM (inactive)
- GI50 (DLD-1): 8.17 µM (inactive)
- GI50 (DMS-114): 49.7 µM (inactive)
- GI50 (DMS-273): 59.2 µM (inactive)
- GI50 (EKVX): > 100 µM (inactive)
- GI50 (HCC 2998): 13.6 µM (inactive)
- GI50 (HCT-116): > 100 µM (inactive)
- GI50 (HCT-15): 0.887 µM
- GI50 (HL-60): 26 µM (inactive)
- GI50 (HOP-62): 57 µM (inactive)
- GI50 (HOP-92): > 100 µM (inactive)
- GI50 (HT-29): 5.92 µM (inactive)
- GI50 (IGROV-1): > 100 µM (inactive)
- GI50 (K562): 1.37 µM (inactive)
- GI50 (KM-20L2): 1.07 µM (active)
- GI50 (KM12): 97.5 µM (inactive)
- GI50 (LOX IMVI): 1.26 µM (inactive)
- GI50 (LXFL 529): 0.859 µM (active)
- GI50 (M14): 2.9 µM (inactive)
- GI50 (M19-MEL): 36.7 µM (inactive)
- GI50 (MOLT-4): > 100 µM (inactive)
- GI50 (Malme-3M): > 100 µM (inactive)
- GI50 (NCI-H226): > 100 µM (inactive)
- GI50 (NCI-H23): > 100 µM (inactive)
- GI50 (NCI-H460): 71.3 µM (inactive)
- GI50 (NCI-H522): > 100 µM (inactive)
- GI50 (OVCAR-3): > 100 µM (inactive)
- GI50 (OVCAR-4): 62.4 µM (inactive)
- GI50 (OVCAR-5): 30.3 µM (inactive)
- GI50 (OVCAR-8): > 100 µM (inactive)
- GI50 (RPMI-8226): > 100 µM (inactive)
- GI50 (RXF 631): > 100 µM (inactive)
- GI50 (SF-268): 97.1 µM (inactive)
- GI50 (SF-295): 86.1 µM (inactive)
- GI50 (SF-539): 76.7 µM (inactive)
- GI50 (SK-MEL-28): > 100 µM (inactive)
- GI50 (SK-MEL-2): > 100 µM (inactive)
- GI50 (SK-MEL-5): > 100 µM (inactive)
- GI50 (SK-OV-3): > 100 µM (inactive)
- GI50 (SN12C): > 100 µM (inactive)
- GI50 (SNB-19): > 100 µM (inactive)
- GI50 (SNB-75): > 100 µM (inactive)
- GI50 (SW-620): > 100 µM (inactive)
- GI50 (TK-10): > 100 µM (inactive)
- GI50 (U-251): > 100 µM (inactive)
- GI50 (UACC-257): > 100 µM (inactive)
- GI50 (UACC-62): 0.931 µM (active)
- GI50 (UO-31): 33.5 µM (inactive)
- GI50 (XF498): > 100 µM (inactive)

SMILES: CCOC(=O)/C=C(/CN1C(=O)c2ccccc2C1=O)c1ccccc1
- GI50 (786-0): > 100 µM (inactive)
- GI50 (A498): > 100 µM (inactive)
- GI50 (A549): > 100 µM (inactive)
- GI50 (ACHN): > 100 µM (inactive)
- GI50 (CAKI-1): > 100 µM (inactive)
- GI50 (CCRF-CEM): > 100 µM (inactive)
- GI50 (COLO 205): > 100 µM (inactive)
- GI50 (DLD-1): > 100 µM (inactive)
- GI50 (DMS-114): > 100 µM (inactive)
- GI50 (DMS-273): > 100 µM (inactive)
- GI50 (EKVX): > 100 µM (inactive)
- GI50 (HCC 2998): > 100 µM (inactive)
- GI50 (HCT-116): > 100 µM (inactive)
- GI50 (HCT-15): > 100 µM
- GI50 (HOP-18): > 100 µM (inactive)
- GI50 (HOP-62): > 100 µM (inactive)
- GI50 (HOP-92): > 100 µM (inactive)
- GI50 (HT-29): > 100 µM (inactive)
- GI50 (IGROV-1): > 100 µM (inactive)
- GI50 (K562): > 100 µM (inactive)
- GI50 (KM-20L2): > 100 µM (inactive)
- GI50 (KM12): > 100 µM (inactive)
- GI50 (LOX IMVI): > 100 µM (inactive)
- GI50 (LXFL 529): > 100 µM (inactive)
- GI50 (M14): > 100 µM (inactive)
- GI50 (M19-MEL): > 100 µM (inactive)
- GI50 (MOLT-4): > 100 µM (inactive)
- GI50 (Malme-3M): > 100 µM (inactive)
- GI50 (NCI-H226): > 100 µM (inactive)
- GI50 (NCI-H23): > 100 µM (inactive)
- GI50 (NCI-H460): > 100 µM (inactive)
- GI50 (NCI-H522): > 100 µM (inactive)
- GI50 (OVCAR-3): > 100 µM (inactive)
- GI50 (OVCAR-4): > 100 µM (inactive)
- GI50 (OVCAR-5): > 100 µM (inactive)
- GI50 (OVCAR-8): > 100 µM (inactive)
- GI50 (RPMI-8226): > 100 µM (inactive)
- GI50 (RXF 393): > 100 µM (inactive)
- GI50 (SF-268): > 100 µM (inactive)
- GI50 (SF-295): > 100 µM (inactive)
- GI50 (SF-539): > 100 µM (inactive)
- GI50 (SK-MEL-28): > 100 µM (inactive)
- GI50 (SK-MEL-2): > 100 µM (inactive)
- GI50 (SK-MEL-5): > 100 µM (inactive)
- GI50 (SK-OV-3): > 100 µM (inactive)
- GI50 (SN12C): > 100 µM (inactive)
- GI50 (SNB-19): > 100 µM (inactive)
- GI50 (SNB-75): > 100 µM (inactive)
- GI50 (SNB-78): 88.9 µM (inactive)
- GI50 (SW-620): > 100 µM (inactive)
- GI50 (TK-10): > 100 µM (inactive)
- GI50 (U-251): > 100 µM (inactive)
- GI50 (UACC-257): > 100 µM (inactive)
- GI50 (UACC-62): > 100 µM (inactive)
- GI50 (UO-31): > 100 µM (inactive)
- GI50 (XF498): > 100 µM (inactive)

SMILES: Cc1cc(N(CCC#N)S(=O)(=O)c2ccccc2)ccc1/C=N\c1cccc(C(=O)O)c1
- GI50 (A549): > 100 µM (inactive)
- GI50 (ACHN): > 100 µM (inactive)
- GI50 (CAKI-1): > 100 µM (inactive)
- GI50 (CCRF-CEM): > 100 µM (inactive)
- GI50 (COLO 205): > 100 µM (inactive)
- GI50 (DMS-114): 61 µM (inactive)
- GI50 (EKVX): > 100 µM (inactive)
- GI50 (HCC 2998): > 100 µM (inactive)
- GI50 (HCT-116): > 100 µM (inactive)
- GI50 (HCT-15): > 100 µM
- GI50 (HL-60): > 100 µM (inactive)
- GI50 (HOP-18): > 100 µM (inactive)
- GI50 (HOP-62): > 100 µM (inactive)
- GI50 (HOP-92): > 100 µM (inactive)
- GI50 (HT-29): > 100 µM (inactive)
- GI50 (IGROV-1): > 100 µM (inactive)
- GI50 (K562): 71 µM (inactive)
- GI50 (KM-20L2): > 100 µM (inactive)
- GI50 (LXFL 529): > 100 µM (inactive)
- GI50 (M14): > 100 µM (inactive)
- GI50 (M19-MEL): > 100 µM (inactive)
- GI50 (MOLT-4): > 100 µM (inactive)
- GI50 (Malme-3M): > 100 µM (inactive)
- GI50 (NCI-H226): > 100 µM (inactive)
- GI50 (NCI-H23): > 100 µM (inactive)
- GI50 (NCI-H460): > 100 µM (inactive)
- GI50 (NCI-H522): > 100 µM (inactive)
- GI50 (OVCAR-3): > 100 µM (inactive)
- GI50 (OVCAR-4): > 100 µM (inactive)
- GI50 (OVCAR-5): > 100 µM (inactive)
- GI50 (OVCAR-8): > 100 µM (inactive)
- GI50 (RPMI-8226): > 100 µM (inactive)
- GI50 (RXF 393): > 100 µM (inactive)
- GI50 (RXF 631): > 100 µM (inactive)
- GI50 (SF-268): 60.1 µM (inactive)
- GI50 (SF-295): > 100 µM (inactive)
- GI50 (SF-539): > 100 µM (inactive)
- GI50 (SK-MEL-28): > 100 µM (inactive)
- GI50 (SK-MEL-2): > 100 µM (inactive)
- GI50 (SK-MEL-5): 83.6 µM (inactive)
- GI50 (SK-OV-3): > 100 µM (inactive)
- GI50 (SN12C): > 100 µM (inactive)
- GI50 (SNB-19): > 100 µM (inactive)
- GI50 (SNB-75): 35.6 µM (inactive)
- GI50 (SNB-78): > 100 µM (inactive)
- GI50 (SW-620): > 100 µM (inactive)
- GI50 (TK-10): > 100 µM (inactive)
- GI50 (U-251): > 100 µM (inactive)
- GI50 (UACC-257): > 100 µM (inactive)
- GI50 (UACC-62): > 100 µM (inactive)
- GI50 (UO-31): 53.3 µM (inactive)

Reference: ChEMBL document CHEMBL1201862, “PubChem BioAssay data set” (2004)
